# How the values were obtained:
# [1] = test system: luciferase-expressing MV4-11 cells; test: MV4-11 leukemia in NSG mice, bioluminescence imaging; assay type: in vivo, mouse; conditions: for inhibition of leukemia growth (BLI): 23 days, NSG mice
# Description: Assay protocol. For in vivo studies, 7-week-old female NSG mice (Jackson Laboratories) were injected with 2×10^6 luciferase-expressing MV4-11 cells in the tail vein. Following engraftment, BLI was performed on the inoculated mice 5 days after cell inoculation. After BLI, the mice were sorted into two matching cohorts of 10 mice and one cohort of 5 mice. BLI detection was done with IVIS Lumina II Series Hardware for In-Vivo Imaging with optional XFOV lens and Living Image software. The IVIS setting for sorting mice into cohorts was set for high sensitivity: Bin 8, F1.2, 180 sec. Subsequent exposures (week 1-5) were set for increased resolution: Bin 4, F1.2, 120 sec.
# Treatment was initiated on day 6 following cell-inoculation and continued for 23 days. Ten mice received Vehicle only (5% carboxylmethyl cellulose) by gavage (200 μl). […] This diet matches the diet used for normal mouse feeding, with the exception of added dye and 15u. The control MV4-11 xenografted mice (Vehicle) developed a vigorous tumor population as detected by BLI (FIG. 10B-10C). […] Survival of the mice post treatment was monitored.
# [2] = test system: alkaline phosphatase (ALPase) in bone marrow stromal cell line ST2; conditions: concentration that enhances ALPase activity to 200% of control; ST2 cells; Saito (2013); cited from earlier work
# [3] = MTD study, oral gavage b.i.d. 14 days, CD-1 mice; assay type: in vivo, mouse; conditions: for detrimental effects: 14 days
# Description: The highest dose (120 mg/kg b.i.d.) caused about 10% body weight loss in female mice after 7-10 days of treatment but no further deterioration was observed through the rest of the treatment period (FIG. 12A).
# CSNK1A1 = target: T1, CSNK1A1 (Homo sapiens, UniProt P48729); test: Kd Elect binding assay (DiscoverX); conditions: duplicates
# T1 construct: DNA label (qPCR read-out); purchased DiscoverX (assay service)
# T1 sequence (P48729 whole entry): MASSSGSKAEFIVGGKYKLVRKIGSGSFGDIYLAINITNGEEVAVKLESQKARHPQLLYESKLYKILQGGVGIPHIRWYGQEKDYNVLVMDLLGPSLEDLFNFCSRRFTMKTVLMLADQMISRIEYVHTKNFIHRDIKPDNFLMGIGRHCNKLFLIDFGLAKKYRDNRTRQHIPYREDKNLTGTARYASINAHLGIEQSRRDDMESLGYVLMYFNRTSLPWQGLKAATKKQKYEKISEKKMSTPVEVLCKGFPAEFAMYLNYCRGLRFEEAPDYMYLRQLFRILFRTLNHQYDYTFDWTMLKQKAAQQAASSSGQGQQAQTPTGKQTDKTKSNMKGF
# Source text: (§1) Nat. Biotechnol. 23, 329-336 (2005).
# GSK3A = target: T2, GSK3A (Homo sapiens, UniProt P49840); test: Kd Elect binding assay (DiscoverX); conditions: duplicates
# T2 construct: DNA label (qPCR read-out); purchased DiscoverX (assay service)
# T2 sequence (P49840 whole entry): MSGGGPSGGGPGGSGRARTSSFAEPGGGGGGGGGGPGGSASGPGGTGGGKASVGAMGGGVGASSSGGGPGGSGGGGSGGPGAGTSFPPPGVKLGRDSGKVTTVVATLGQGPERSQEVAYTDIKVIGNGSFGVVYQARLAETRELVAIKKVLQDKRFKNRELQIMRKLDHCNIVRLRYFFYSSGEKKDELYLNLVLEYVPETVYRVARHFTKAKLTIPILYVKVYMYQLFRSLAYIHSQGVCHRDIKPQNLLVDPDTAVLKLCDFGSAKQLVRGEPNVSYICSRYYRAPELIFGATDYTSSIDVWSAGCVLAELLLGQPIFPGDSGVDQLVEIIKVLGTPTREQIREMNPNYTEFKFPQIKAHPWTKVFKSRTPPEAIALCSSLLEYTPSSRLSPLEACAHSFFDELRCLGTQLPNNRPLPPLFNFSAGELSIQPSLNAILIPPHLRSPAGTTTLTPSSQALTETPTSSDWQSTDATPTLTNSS
# Source text: as §1
# CDK8 = target: T3, CDK8 (Homo sapiens, UniProt P49336); test: Kd Elect binding assay (DiscoverX); conditions: duplicates
# T3 construct: DNA label (qPCR read-out); purchased DiscoverX (assay service)
# T3 sequence (P49336 whole entry): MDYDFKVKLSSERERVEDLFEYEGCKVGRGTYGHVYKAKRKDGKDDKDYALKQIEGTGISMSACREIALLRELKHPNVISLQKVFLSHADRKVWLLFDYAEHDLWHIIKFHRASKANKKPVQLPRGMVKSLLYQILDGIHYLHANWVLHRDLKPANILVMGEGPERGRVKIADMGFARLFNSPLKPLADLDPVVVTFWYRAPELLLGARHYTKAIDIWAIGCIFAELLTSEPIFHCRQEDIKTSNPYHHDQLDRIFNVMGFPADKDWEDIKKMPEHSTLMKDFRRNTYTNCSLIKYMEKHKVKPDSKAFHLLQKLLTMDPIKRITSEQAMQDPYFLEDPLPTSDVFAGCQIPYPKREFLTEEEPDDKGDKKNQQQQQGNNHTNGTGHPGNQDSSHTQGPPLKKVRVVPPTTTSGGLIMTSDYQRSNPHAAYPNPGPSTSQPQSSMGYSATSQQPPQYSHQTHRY
# Source text: as §1
# RIOK2 = target: T4, RIOK2 (Homo sapiens, UniProt Q9BVS4); test: Kd Elect binding assay (DiscoverX); conditions: duplicates
# T4 construct: DNA label (qPCR read-out); purchased DiscoverX (assay service)
# T4 sequence (Q9BVS4 whole entry): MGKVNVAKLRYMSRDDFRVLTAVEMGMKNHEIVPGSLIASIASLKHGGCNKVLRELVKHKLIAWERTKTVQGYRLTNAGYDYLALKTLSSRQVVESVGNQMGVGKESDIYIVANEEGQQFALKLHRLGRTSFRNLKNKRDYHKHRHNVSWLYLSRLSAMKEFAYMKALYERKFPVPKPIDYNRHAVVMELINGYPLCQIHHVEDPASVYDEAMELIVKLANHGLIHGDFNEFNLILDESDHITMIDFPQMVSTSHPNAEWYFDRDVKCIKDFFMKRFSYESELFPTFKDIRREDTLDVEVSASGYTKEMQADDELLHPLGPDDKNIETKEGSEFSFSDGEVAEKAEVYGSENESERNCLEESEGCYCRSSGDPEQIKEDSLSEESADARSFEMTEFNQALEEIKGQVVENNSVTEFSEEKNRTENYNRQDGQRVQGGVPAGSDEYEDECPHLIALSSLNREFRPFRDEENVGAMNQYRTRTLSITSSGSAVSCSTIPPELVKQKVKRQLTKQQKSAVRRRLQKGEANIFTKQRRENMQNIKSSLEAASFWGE
# Source text: as §1
# CDK19 = target: T5, CDK19 (Homo sapiens, UniProt Q9BWU1); test: Kd Elect binding assay (DiscoverX); conditions: duplicates
# T5 construct: DNA label (qPCR read-out); purchased DiscoverX (assay service)
# T5 sequence (Q9BWU1 whole entry): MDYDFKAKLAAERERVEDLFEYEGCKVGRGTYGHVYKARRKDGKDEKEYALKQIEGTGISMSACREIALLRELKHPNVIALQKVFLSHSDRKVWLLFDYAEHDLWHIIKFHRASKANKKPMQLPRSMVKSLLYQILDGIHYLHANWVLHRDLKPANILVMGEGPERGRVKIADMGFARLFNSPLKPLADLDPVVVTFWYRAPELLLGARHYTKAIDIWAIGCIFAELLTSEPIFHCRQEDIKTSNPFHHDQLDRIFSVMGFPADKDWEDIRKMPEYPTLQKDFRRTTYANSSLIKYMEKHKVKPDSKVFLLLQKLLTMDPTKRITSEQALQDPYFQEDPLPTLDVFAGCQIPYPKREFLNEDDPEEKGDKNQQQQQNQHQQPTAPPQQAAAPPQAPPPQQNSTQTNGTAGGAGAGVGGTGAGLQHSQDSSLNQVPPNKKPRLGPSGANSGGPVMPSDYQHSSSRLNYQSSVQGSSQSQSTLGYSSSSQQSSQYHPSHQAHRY
# Source text: as §1
# Mouse PK, oral 1 mg/kg = assay type: in vivo; conditions: female, FVB, serum, mice, oral (gavage) 1 mg/kg
structure (smiles),measurement,setting,value
"CN(C)C(=O)c1ccc(N2CCCN(c3ccnc4sc(C(N)=O)c(N)c34)CC2)cc1 [15u, 3-amino-4-(4-(4-(dimethylcarbamoyl)phenyl)-1,4-diazepan-1-yl)thieno[2,3-b]pyridine-2-carboxamide]",inhibition of leukemia growth (BLI),[1]; 30 mg/kg twice daily by gavage,94%
same,inhibition of leukemia growth (BLI),[1]; medicated chow containing 15u at 1 g/kg,99.7%
same,survival post treatment,"[1]; oral gavage, FIG. 10D",superior survival rates
same,ALP activity Assay EC200,[2],31.9 nM
same,body weight loss,"[3]; female CD-1 mice, 120 mg/kg b.i.d., after 7-10 days of treatment",about 10%
same,detrimental effects,"[3]; female CD-1 mice, doses up to 60 mg/kg b.i.d.",No detrimental effects
same,detrimental effects,"[3]; male CD-1 mice, 60 and 120 mg/kg b.i.d.",No detrimental effects
same,Kd,CSNK1A1,230 nM
same,Kd,GSK3A,5600 nM
same,Kd,CDK8,78 nM
same,Kd,RIOK2,240 nM
same,Kd,CDK19,65 nM
same,AUC,"Mouse PK, oral 1 mg/kg",79.3 ng·h/mL
same,half-life,"Mouse PK, oral 1 mg/kg",1.3 h
same,bioavailability,"Mouse PK, oral 1 mg/kg; read-out: Bioavailability (F %)",43%
